# System: PANC1 cells
# Assay: Colony formation / growth, PANC1
# Format: cell-based, human
# Conditions: data not shown
structure (smiles),measurement,value
Nc1ncnc2nc(-c3ccc(N4CCOCC4)nc3)cc(-c3cccc(Br)c3)c12 [ABT-702],growth impairment of PANC1 cells,did not observe any growth impairment
